Results reported in US10722484B2, “Methods of cancer treatment” (K-Gen, Inc., priority 2016, dated 2020).

Assays:
[1] = tested on: HL-60 human promyelocytic leukemia cells; assay: Combination viability/proliferation assays
Procedure: (§2) Briefly, cells at density of 1,000-10,000 cells/well in 96-well plates or 200-1600 cells/well in 384-well plates were seeded and incubated at 37° C. for 24 hours before addition of compounds. A series of 9 different concentrations of compound stocks (500×) were prepared by 3-fold serial dilutions in DMSO. […] After 96 hours of incubation, 35 μL or 50 μL of CellTiter Glo reagent (Promega) was added to each well and luminescence was measured after 10 minutes using EnVision (PerkinElmer). Luminescence from cells treated with DMSO alone was set as Max and % of inhibition was calculated as follows: Inhibition %=(Max-Sample value)/Max*100. Data were analyzed using XLfit software (ID Business Solutions Ltd.) or GraphPad software and IC50, relative IC50, and % of top inhibition were calculated.
(§3) The top concentration for the tested PKC activator compound was set at roughly the IC50 when the same testing compound was used as a single agent assayed in the same cell line. The next dose was either 3-fold or 10-fold dilution from the top concentration.

[2] = tested on: MV-4-11 human myelomonocytic leukemia; assay: Combination viability/proliferation assays; settings: K101A (0.1 μM) or K102 (0.01 μM)
Procedure: as §2, §3

[3] = tested on: THP-1 human acute monocytic leukemia cells; assay: Combination viability/proliferation assays; settings: K101A (0.3 μM) and K102 (0.005 μM)
Procedure: as §2, §3

[4] = tested on: Mino (Mantle cell lymphoma); assay: Combination viability/proliferation assays; settings: Mino; K101A (0.1 μM) or K102 (0.001 μM); especially below 0.1 μM cytarabine
Procedure: as §2
Various drugs or compounds (Table 10) were screened and assayed in 384-well plates as 9-point 3-fold dilution series alone and in combination with 2-3 doses of the specified PKC activator compounds (e.g., K101A, K101E, and K102). The top concentration for the tested PKC activator compound was set at roughly the IC50 when the same testing compound was used as a single agent assayed in the same cell line. The next dose was either 3-fold or 10-fold dilution from the top concentration.
The PKC activating agents (e.g., K101A, K101E, and K102) in combination with other chemotherapeutic agents, including standard chemotherapies and certain chemotherapeutic agents targeting certain cell signaling pathways, were also examined on cancer cells other than lung cancer cells.

[5] = tested on: A549 lung cancer cell line; assay: Combination viability/proliferation assays (384-well IC50 ratio, 96-well MacSynergy II); assay type: cell-based
Panc1 = assay: Combination viability/proliferation assays; assay type: cell-based; settings: for Combination effect, Panel: K102: agent in combination with K102
Procedure: (§1) A 96-well MacSynergy II format for combination test was also used. […] The analysis was done with the SQRT(Data) scale and the four parameter Hill curve was fitted using XLfit5.1 (the MacSynergy II Excel Spreadsheet) for the inhibition data. Synergy (positive number) or Antagonism (negative number) volumes were calculated. […] Three-dimensional MacSynergy II graphs were generated where positive values indicated synergism and negative values indicated antagonism.

Panc2.13 = assay: Combination viability/proliferation assays; assay type: cell-based
Procedure: as §1

[6] = tested on: colon cancer cell line Colo205; assay: MacSynergy combination experiments; assay type: cell-based
Procedure: as §1

## CC1=C(/C=C/C(C)=C/C=C/C(C)=C/C(=O)O)C(C)(C)CCC1 [ATRA, all-trans-retinoic acid]
[1]
  effect in combination with K101A and K102: strong synergy
[1]; addition of K101A (0.3 μM) or K102 (0.005 μM), after subtracting inhibition by K101A or K102 alone
  shift of the inhibition curve up: 5-40%
[2]
  shift of the inhibition curve up: 5-20%

## Nc1ccn([C@@H]2O[C@H](CO)[C@@H](O)[C@@H]2O)c(=O)n1 [Cytarabine]
[3]
  effect in combination with K101A and K102: synergy
[4]
  effect in combination with K101A or K102: synergistic anti-proliferative effect
[1]
  effect in combination with K101A and K102: strong synergy
[1]; in combination with K101A (0.3 μM)
  shift of the inhibition curve to the left: half-log
[1]; in combination with K102 (0.005 μM)
  shift of the inhibition curve to the left: full-log

## N.N.[Cl][Pt][Cl] [Cisplatin]
[5]; A549, cisplatin combined with PKC activator compounds (FIG. 6A)
  dose range for the strongest synergy: 0.625 to 2.5 µM
[5]; A549, in combination with 0.005 μM K101A, NC: no change
  Ratio ([…] DMSO IC50/combination IC50): 0.53
[5]; A549, in combination with 0.04 μM K102 (footnote, Cisplatin)
  Ratio ([…] DMSO IC50/combination IC50): 2.61
[5]; A549, in combination with 0.05 μM K101A, NC: no change
  Ratio ([…] DMSO IC50/combination IC50): 0.86
[5]; A549, in combination with 0.13 μM K102 (footnote, Cisplatin)
  Ratio ([…] DMSO IC50/combination IC50): 2.52
[5]; A549, in combination with 0.5 μM K101A, ratio >2 synergistic, <0.5 antagonistic, NC: no change
  Ratio ([…] DMSO IC50/combination IC50): 2.68
[5]; A549, in combination with 1 μM K101E (footnote, Cisplatin)
  Ratio ([…] DMSO IC50/combination IC50): 1.37
[5]; A549, in combination with 3 μM K101E (footnote, Cisplatin)
  Ratio ([…] DMSO IC50/combination IC50): 1.75
[5]; A549, with PKC activator compounds
  synergy at cisplatin dose levels higher than […]: minimal synergy
[5]; PKC activator compounds (K101A, K101E, K102)
  effect in combination with the PKC activator compounds in inhibiting the growth of A549 cells: strong synergistic effect
[5]; agent assayed in combination with K101A, A549, * 2-3 concentrations, # full concentration ranges
  Combination in A549: K101A (synergism/antagonism): Synergism (strong)
[5]; agent assayed in combination with K101E, A549
  Combination in A549: K101E (synergism/antagonism): None
[5]; agent assayed in combination with K102, A549, * 2-3 concentrations, # full concentration ranges
  Combination in A549: K102 (synergism/antagonism): Synergism (strong)
Panc1; Panc1, with K101A or K102
  effect at highest concentrations of combination agents: Slight antagonism
Panc1
  Combination effect, Panel: K102: None
Panc1; listed as cisplatin
  Combination effect, Panel: K102: not
Panc2.13; Panc2.13, K101A at 1 μM or at 0.67 μM
  effect in combination with K101A: strong synergy
Panc2.13; agent in combination with K101A
  Combination effect, Panc2.13: K101A: Synergism
[6]; Colo205, in combination with K101A (column not headed)
  synergy volume (MacSynergy): 49
[6]; Colo205, in combination with K102 (column not headed)
  synergy volume (MacSynergy): 41
